{"source": "BindingDB's records for doi:10.1016/j.bmc.2008.07.062", "about": "(Astellas Pharma, 2008)", "key": {"[1]": {"experiment": "Antagonist activity at human CCR4 receptor assessed as inhibition of CCL22-induced chemotaxis by bioluminescent assay"}, "[2]": {"experiment": "Antagonist activity at mouse CCR4 receptor assessed as inhibition of CCL22-induced chemotaxis by bioluminescent assay"}}, "note": "pIC50: −log10 of the molar value.", "data": [{"smiles": "COc1cc2nc(N3CCC(N(C)CCCO)CC3)nc(Nc3ccc(Cl)cc3)c2cc1OC", "note": "[3-[(1-{4-[(4-Chlorophenyl)amino]-6,7-dimethoxyquinazolin-2-yl}piperidin-4-yl)(methyl)amino]propan-1-ol]", "values": [{"measurement": "pIC50", "setting": "[1]", "value": 6.55}]}, {"smiles": "COc1cc2nc(N3CCC(N(C)CCCCO)CC3)nc(Nc3ccc(Cl)cc3)c2cc1OC", "note": "[4-[(1-{4-[(4-Chlorophenyl)amino]-6,7-dimethoxyquinazolin-2-yl}piperidin-4-yl)(methyl)amino]butan-1-ol]", "values": [{"measurement": "pIC50", "setting": "[1]", "value": 6.44}]}, {"smiles": "COc1cc2nc(N3CCC(N4CCCC4)CC3)nc(Nc3ccc(F)c(F)c3)c2cc1OC", "note": "[N-(3,4-Difluorophenyl)-6,7-dimethoxy-2-(4-pyrrolidin-1-ylpiperidin-1-yl)quinazolin-4-amine]", "values": [{"measurement": "pIC50", "setting": "[2]", "value": 6.09}, {"measurement": "pIC50", "setting": "[1]", "value": 7.16}]}, {"smiles": "COc1cc2nc(N3CCC(N4CCCC4)CC3)nc(Nc3ccc(F)cc3)c2cc1OC", "note": "[N-(4-Fluorophenyl)-6,7-dimethoxy-2-(4-pyrrolidin-1-ylpiperidin-1-yl)quinazolin-4-amine]", "values": [{"measurement": "pIC50", "setting": "[2]", "value": 6.15}, {"measurement": "pIC50", "setting": "[1]", "value": 6.49}]}]}
